Source: US20230312587A1, “PTERIDINONE COMPOUNDS AND USES THEREOF” (Vertex Pharmaceutical Incorporated, priority 2018, published 2023)
Read-outs that look alike come from different tables or passages of the source.

What was measured:
[1] = tested on: β-catenin-TCF-mediated reporter transcription activity in Colo 205 cells; assay: Colo 205 reporter assay (TCF/LEF luciferase); format: cell-based; conditions: Colo 205 TCF/LEF luciferase reporter, five hours after addition of compound, read-out: TCF reporter Colo205 IC50
How it was run: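 Luciferase signal from a TCF/LEF-driven reporter, stably integrated in Colo 205 colon cancer cells, was measured 5 h after compound addition.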

[2] = tested on: Colo205-TCF/LEF-Luciferase (Luc) tumor; assay: In vivo inhibition of TCF/LEF reporter activity in Colo-205 tumors; set-up: concentration or dose not given beside the values; conditions: TCF/LEF luciferase reporter in Colo-205 tumors, nu/nu mice, oral gavage
Experimental: Colo205-TCF/LEF-Luciferase (Luc) tumor cells were expanded in complete DMEM cell culture media [DMEM (Life Technologies, product #11960-051) media supplemented with 10% FBS (Hyclone, catalog #SH30071.03), antimycotic/antibiotic (Life Technologies, product #15240-062), and Glutamax (Life Technologies, product #35050-061)] with 1 ug/ml puromycin. After reaching confluency/high density, the loosely attached cells in media were transferred from the flask to 50 ml conical tubes. Tumor cells adhered to plastic were detached with trypsin and combined with cells in the conical tubes. The tumor cells were triturated, counted, and pelleted by centrifugation. Cell pellets were resuspended in 0.9% injectable saline (6×10^7 cells/ml). A 50 ul volume (3×10^6 cells) was injected subcutaneously in the flanks of 4-6 wk old female nu/nu mice (Charles River Laboratories). Approximately 13-16 days after implantation, tumors between 200-500 mm^3 were selected (based on caliper measurements and applying the formula […]) and randomized into groups of n=4. Mice were dosed by oral gavage with compound dissolved in 1:3:5:1 EtOH:DMSO:PEG-400:H2O at a rate of 10 ml/kg or 1:3:5:1 EtOH:DMSO:PEG-400:H2O alone (Vehicle Control). Tumors were collected from mice euthanized by CO2 inhalation and snap frozen in liquid nitrogen. Tumors were stored in a −80 degrees C. freezer until they were processed.
Tumors were thawed on ice and homogenized in cold Lysis Buffer (20 mM Tris-HCl (pH 7.5), 150 mM NaCl, 1 mM Na2EDTA, 1 mM EGTA, 1% Triton, 2.5 mM sodium pyrophosphate, 1 mM beta-glycerophosphate, 1 mM Na3VO4, 1 μg/ml leupeptin, 0.05% SDS) using a closed tissue grinder system (Fisher Scientific, Cat #02-542-09) on ice according to manufacturer's instructions. For 100 mg of tumor, 500 uL of Lysis Buffer was used. Tumor lysate was transferred to a pre-chilled microcentrifuge tube and centrifuged at 10,000×g for 10 minutes at 4 degrees C. Supernatant was transferred to a new pre-chilled microcentrifuge tube and was used immediately for analysis of protein content and luciferase activity.
Protein content of tumor lysate supernatant was determined using the BCA assay (Life Technologies Cat #23225). Luciferase activity of tumor lysate supernatant was determined by addition of Steady-Glo luminescence reagent (Promega, Cat #E2550) according to manufacturer's instructions and measurement on a Pherastar luminescence plate reader (BMG Labtech). Luciferase activity was normalized to protein content.

Compound	IC50 ([1]; Homo sapiens, COLO 205, 5 h) [nM]	Percent Remaining Activity at 8 hrs after Dosing [2] [%]	IC50 [1] [nM]
Cc1nc(NCc2cnn(Cc3ccc(Cl)nc3)c2)nc2c1NC(=O)[C@H](C1CC1)N2C [Compound 434, (7S)-2-(((1-((6-chloropyridin-3-yl)methyl)-1H-pyrazol-4-yl)methyl)amino)-7-cyclopropyl-4,8-dimethyl-7,8-dihydropteridin-6(5H)-one]	< 300	26	
Cc1nc(NCc2cnn(Cc3cnc(C(C)C)o3)c2)nc2c1NC(=O)[C@H](C(C)C)N2C [Compound 517, (S)-7-isopropyl-2-(((1-((2-isopropyloxazol-5-yl)methyl)-1H-pyrazol-4-yl)methyl)amino)-4,8-dimethyl-7,8-dihydropteridin-6(5H)-one]	< 300	93	
Cc1nc(NCc2cnn(Cc3ccc(OC(C)C)nc3)c2)nc2c1NC(=O)[C@H](C)N2C [Compound 135, (7S)-2-(((1-((6-isopropoxypyridin-3-yl)methyl)-1H-pyrazol-4-yl)methyl)amino)-4,7,8-trimethyl-7,8-dihydropteridin-6(5H)-one]	< 300	43	
Cc1nc(NC2CN(C(=O)c3ccc(C(F)(F)F)nc3)C2)nc2c1NC(=O)[C@H](C(C)C)N2C [Compound 545, (S)-7-isopropyl-4,8-dimethyl-2-((1-(6-(trifluoromethyl)nicotinoyl)azetidin-3-yl)amino)-7,8-dihydropteridin-6(5H)-one]	300 to 1000	51	
Cc1nc(NCc2cnn(Cc3ccc(C(F)F)nc3)c2)nc2c1NC(=O)[C@H](C1CC1)N2C [Compound 501, (S)-7-cyclopropyl-2-(((1-((6-(difluoromethyl)pyridin-3-yl)methyl)-1H-pyrazol-4-yl)methyl)amino)-4,8-dimethyl-7,8-dihydropteridin-6(5H)-one]	< 300	53	
Cc1nc(NCc2cnn(Cc3ccnc(C(F)(F)F)c3)c2)nc2c1NC(=O)[C@H](C(C)C)N2C [Compound 447, (S)-7-isopropyl-4,8-dimethyl-2-(((1-((2-(trifluoromethyl)pyridin-4-yl)methyl)-1H-pyrazol-4-yl)methyl)amino)-7,8-dihydropteridin-6(5H)-one]	< 300	76	
Cc1nc(NCc2cnn(Cc3ccc(C(F)(F)F)o3)c2)nc2c1NC(=O)[C@H](C(C)C)N2C [Compound 518, (S)-7-isopropyl-4,8-dimethyl-2-(((1-((5-(trifluoromethyl)furan-2-yl)methyl)-1H-pyrazol-4-yl)methyl)amino)-7,8-dihydropteridin-6(5H)-one]	< 300	21	
COc1c(F)cc(C(=O)N2CC(Nc3nc(C)c4c(n3)N(C)[C@@H](C(C)C)C(=O)N4)C2)cc1F [Compound 542, (S)-2-((1-(3,5-difluoro-4-methoxybenzoyl)azetidin-3-yl)amino)-7-isopropyl-4,8-dimethyl-7,8-dihydropteridin-6(5H)-one]	< 300	22	
Cc1nc(NCc2cnn(Cc3ccc(F)nc3)c2)nc2c1NC(=O)[C@H](C(C)(C)C)N2C [Compound 437, (7S)-7-(tert-butyl)-2-(((1-((6-fluoropyridin-3-yl)methyl)-1H-pyrazol-4-yl)methyl)amino)-4,8-dimethyl-7,8-dihydropteridin-6(5H)-one]	< 300	20	
CO[C@H](C)[C@H]1C(=O)Nc2c(C)nc(NCc3cnn(Cc4ccc(Cl)nc4)c3)nc2N1C [Compound 499, (S)-2-(((1-((6-chloropyridin-3-yl)methyl)-1H-pyrazol-4-yl)methyl)amino)-7-((R)-1-methoxyethyl)-4,8-dimethyl-7,8-dihydropteridin-6(5H)-one]	< 300	31	
Cc1nc(NCc2cnn(Cc3ccc(C#N)nc3)c2)nc2c1NC(=O)[C@H](C(C)C)N2C [Compound 431, (7S)-5-((4-(((7-isopropyl-4,8-dimethyl-6-oxo-5,6,7,8-tetrahydropteridin-2-yl)amino)methyl)-1H-pyrazol-1-yl)methyl)picolinonitrile]	< 300	29	
Cc1nc(NCc2cnn([C@H]3C[C@H]3c3ccc(F)cc3)c2)nc2c1NC(=O)[C@H](C)N2C [Compound 155, (7S)-2-(((1-((1S,2S)-2-(4-fluorophenyl)cyclopropyl)-1H-pyrazol-4-yl)methyl)amino)-4,7,8-trimethyl-7,8-dihydropteridin-6(5H)-one]	< 300	17	
Cc1nc(NCc2cnn(Cc3ccc(Cl)nc3)c2)nc2c1N(C)C(=O)[C@H](CCO)N2C [Compound 445, (7S)-2-(((1-((6-chloropyridin-3-yl)methyl)-1H-pyrazol-4-yl)methyl)amino)-7-(2-hydroxyethyl)-4,5,8-trimethyl-7,8-dihydropteridin-6(5H)-one]	300 to 1000	98	
Cc1nc(NCc2cnn(Cc3ccc(C(F)(F)F)nc3)c2)nc2c1N(C)C(=O)[C@H](CCO)N2C [Compound 443, (7S)-7-(2-hydroxyethyl)-4,5,8-trimethyl-2-(((1-((6-(trifluoromethyl)pyridin-3-yl)methyl)-1H-pyrazol-4-yl)methyl)amino)-7,8-dihydropteridin-6(5H)-one]	300 to 1000	100	
Cc1nc(NCc2cnn(Cc3ccc(F)cc3C#N)c2)nc2c1N(C)C(=O)[C@H](C)N2C [Compound 63, (7S)-5-fluoro-2-((4-(((4,5,7,8-tetramethyl-6-oxo-5,6,7,8-tetrahydropteridin-2-yl)amino)methyl)-1H-pyrazol-1-yl)methyl)benzonitrile]	< 300	9	
COCC[C@H]1C(=O)Nc2c(C)nc(NCc3cnn(Cc4cc(C(F)(F)F)nn4C)c3)nc2N1C [Compound 678, (S)-7-(2-methoxyethyl)-4,8-dimethyl-2-(((1-((1-methyl-3-(trifluoromethyl)-1H-pyrazol-5-yl)methyl)-1H-pyrazol-4-yl)methyl)amino)-7,8-dihydropteridin-6(5H)-one]	< 300	75	
Cc1nc(NCc2cnn(Cc3ccnc(N(C)C)c3)c2)nc2c1NC(=O)[C@H](C1CC1)N2C [Compound 466, (S)-7-cyclopropyl-2-(((1-((2-(dimethylamino)pyridin-4-yl)methyl)-1H-pyrazol-4-yl)methyl)amino)-4,8-dimethyl-7,8-dihydropteridin-6(5H)-one]	< 300	101	
(S)-7-ethyl-2-(((1-((2-isopropyloxazol-5-yl)methyl)-1H-pyrazol-4-yl)methyl)amino)-4,8-dimethyl-7,8-dihydropteridin-6(5H)-one [Compound 513]		90	< 300
Cc1nc(NCc2cnn(Cc3ccc(C(C)(F)F)nc3)c2)nc2c1NC(=O)[C@H](C(C)C)N2C [Compound 511, (S)-2-(((1-((6-(1,1-difluoroethyl)pyridin-3-yl)methyl)-1H-pyrazol-4-yl)methyl)amino)-7-isopropyl-4,8-dimethyl-7,8-dihydropteridin-6(5H)-one]	< 300	52	
COCC[C@H]1C(=O)Nc2c(C)nc(NCc3cnn(Cc4ccc(C(F)(F)F)nc4)c3)nc2N1C [Compound 589, (S)-7-(2-methoxyethyl)-4,8-dimethyl-2-(((1-((6-(trifluoromethyl)pyridin-3-yl)methyl)-1H-pyrazol-4-yl)methyl)amino)-7,8-dihydropteridin-6(5H)-one]	< 300	94	
Cc1nc(NC2CN(C(=O)c3ccc(Cl)nc3)C2)nc2c1NC(=O)[C@H](C(C)C)N2C [Compound 549, (S)-2-((1-(6-chloronicotinoyl)azetidin-3-yl)amino)-7-isopropyl-4,8-dimethyl-7,8-dihydropteridin-6(5H)-one]	1000 to 5000	30	
